Numbers after ± are expanded uncertainties.
Assay: xn = mol fraction of the nth substance listed
Settings: 101 kPa, Liquid, Pycnometric method

C=CC(=O)OCCCC [butyl 2-propenoate] + Cc1ccccc1C
mass density [kg/m3]
Settings	288.15 K	293.15 K	298.15 K	303.15 K	308.15 K	313.15 K	318.15 K
x1 = 0.0685	885.81 ± 0.23	881.5 ± 0.21	877.19 ± 0.22	872.88 ± 0.23	868.57 ± 0.24	864.26 ± 0.25	859.95 ± 0.26
x1 = 0.1306	887.32 ± 0.23	882.97 ± 0.22	878.62 ± 0.23	874.27 ± 0.24	869.92 ± 0.25	865.57 ± 0.26	861.22 ± 0.27
x1 = 0.2018	889 ± 0.23	884.6 ± 0.22	880.2 ± 0.23	875.8 ± 0.24	871.41 ± 0.25	867.02 ± 0.26	862.63 ± 0.27
x1 = 0.2738	890.63 ± 0.23	886.19 ± 0.22	881.75 ± 0.23	877.31 ± 0.24	872.87 ± 0.25	868.44 ± 0.26	864.01 ± 0.27
x1 = 0.3654	892.61 ± 0.24	888.12 ± 0.23	883.63 ± 0.24	879.14 ± 0.25	874.65 ± 0.26	870.17 ± 0.27	865.69 ± 0.28
x1 = 0.4331	894.01 ± 0.24	889.49 ± 0.23	884.97 ± 0.24	880.45 ± 0.25	875.93 ± 0.26	871.41 ± 0.27	866.89 ± 0.28
x1 = 0.5072	895.49 ± 0.24	890.93 ± 0.23	886.37 ± 0.24	881.81 ± 0.25	877.25 ± 0.26	872.7 ± 0.27	868.14 ± 0.28
x1 = 0.589	897.05 ± 0.25	892.45 ± 0.24	887.85 ± 0.25	883.25 ± 0.26	878.65 ± 0.27	874.06 ± 0.28	869.47 ± 0.29
x1 = 0.6522	898.2 ± 0.25	893.57 ± 0.24	888.94 ± 0.25	884.31 ± 0.26	879.68 ± 0.27	875.06 ± 0.28	870.44 ± 0.29
x1 = 0.7283	899.51 ± 0.26	894.85 ± 0.24	890.19 ± 0.25	885.53 ± 0.26	880.87 ± 0.27	876.21 ± 0.28	871.55 ± 0.29
x1 = 0.7924	900.56 ± 0.26	895.87 ± 0.25	891.18 ± 0.26	886.49 ± 0.27	881.8 ± 0.28	877.12 ± 0.29	872.44 ± 0.3
x1 = 0.8587	901.6 ± 0.26	896.88 ± 0.25	892.16 ± 0.26	887.45 ± 0.27	882.74 ± 0.28	878.03 ± 0.29	873.32 ± 0.3
x1 = 0.9298	902.64 ± 0.27	897.9 ± 0.26	893.16 ± 0.27	888.42 ± 0.27	883.69 ± 0.28	878.96 ± 0.29	874.23 ± 0.3
x1 = 1	903.6 ± 0.27	898.85 ± 0.26	894.1 ± 0.27	889.35 ± 0.28	884.6 ± 0.29	879.85 ± 0.3	875.1 ± 0.31
